Molecular target: FLIP-AF1 biosensor (AF1 protein fused to CFP and YFP Venus) (Agrobacterium fabrum, UniProt A9CK51)
Settings: excitation 433 nm, emission 485/528 nm; 20 mM sodium phosphate buffer, pH 7.0
Experimental: A DNA fragment encoding the mature AF1 protein was fused to CFP and the YFP Venus sequence at the N- and C-termini, respectively. Emission spectra and substrate titration curves were obtained by using monochromator microplate reader Safire (Tecan, Austria). Excitation filter was 433/−12 nm, emission filters for CFP and YFP emission were 485/−12, 528 nm/12 nm, respectively. All analyses were done in 20 mM sodium phosphate buffer, pH 7.0.
The FLIP-AF1 biosensor (see SEQ ID Nos. 3 and 4) was titrated against various putrescine concentrations.

Chain of FLIP-AF1 biosensor (AF1 protein fused to CFP and YFP Venus) (A9CK51 27-365): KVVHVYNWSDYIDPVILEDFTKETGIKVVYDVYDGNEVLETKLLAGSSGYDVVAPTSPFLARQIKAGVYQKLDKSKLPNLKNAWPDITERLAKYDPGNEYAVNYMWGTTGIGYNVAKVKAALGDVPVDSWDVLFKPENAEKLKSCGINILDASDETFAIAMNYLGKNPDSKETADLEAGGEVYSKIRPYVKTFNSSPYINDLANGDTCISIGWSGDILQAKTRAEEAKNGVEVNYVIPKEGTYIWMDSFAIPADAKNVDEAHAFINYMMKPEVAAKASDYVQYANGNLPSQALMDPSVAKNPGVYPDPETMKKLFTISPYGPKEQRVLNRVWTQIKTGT

In the case of `NCCCCN` [putrescine, 1,4-diaminobutane], the “change in CFP/YFP emission (YFP/CFP ratio) on addition of putrescine” value is reported as “decrease in the YFP/CFP ratio”.

Reference: US20090178149A1, “Polyamine Sensors and Methods of Using the Same” (priority 2005, published 2009)
